US8173628B2, “Steroidal antiestrogens and antiandrogens and uses thereof” (Northeastern University, priority 2000, dated 2012)

Assays:
MCF-7 cells = assay: proliferation assay of MCF-7 cells; type: cell-based; conditions: for effect on the proliferative response to estradiol: ligand added in the presence of 1 nM estradiol; for ability of the ligand to stimulate the proliferation of MCF-7 cells: ligand alone
Source text: Trifluoromethyl group was introduced onto phenylvinyl estradiol either at the ortho, meta, or para positions. These compounds were examined for their ability to stimulate or inhibit estrogen responses in two assay systems. […] The meta- and para-isomers gave substantially different profiles. […] Therefore, the position of the trifluoromethyl group exerted a significant effect on the efficacy of the ligand.

immature female rat [1] = assay: immature female rat uterotrophic growth assay, estrogenic assay; type: in vivo
Protocol: (§1) These trifluoromethyl substituted compounds were also studied with an immature female rat uterotrophic growth assay; the results are shown in FIGS. 12, 13, and 14. […] Therefore, the agonist responses observed in the in vitro cell proliferation assay were carried over to the intact animal as well. The antiestrogen assay evaluated the ability of the isomers to block the uterotrophic effect induced by 1 nM estradiol. […] Therefore, in both estrogen responsive cells and tissues these new ligands are producing differential responses in affinity and efficacy related to the site of trifluoromethyl substitution on the phenyl ring.

immature female rat [2] = assay: immature female rat uterotrophic growth assay, antiestrogen assay; type: in vivo; conditions: 1 nM estradiol
Protocol: as §1

SMILES	effect on the proliferative response to estradiol (MCF-7 cells)	ability of the ligand to stimulate the proliferation of MCF-7 cells (MCF-7 cells)	estrogenic effect (uterotrophic growth) (immature female rat [1]; 3 nM level)	estrogenic effect (uterotrophic growth) (immature female rat [1]; 10 and 100 nM)	ability to block the uterotrophic effect induced by estradiol (immature female rat [2]; isomer at 10 and 100 nM)	ability to block the uterotrophic effect induced by estradiol (immature female rat [2]; isomer at 100 nM)
CC12CCC3c4ccc(O)cc4CCC3C1CCC2(O)C=Cc1ccccc1C(F)(F)F (stereo not drawn) [Compound 4a, 17α-20E-21-(2-Trifluoromethylphenyl)-19-norpregna-1,3,5(10),20-tetraene-3,17β-diol]	neither an enhancement nor a diminution of the proliferative response	full agonist response comparable to that of estradiol	effect comparable to estradiol	substantial estrogenic effects	enhancement of the estrogenic response	
CC12CCC3c4ccc(O)cc4CCC3C1CCC2(O)C=Cc1cccc(C(F)(F)F)c1 (stereo not drawn) [Compound 5a, 17α-20E-21-(3-Trifluoromethylphenyl)-19-norpregna-1,3,5(10),20-tetraene-3,17β-diol]	antagonized the effects of estradiol at the same doses	weak proliferative effect at doses greater than 1 nM		little or no estrogenic effects	no significant effect on the estradiol response	
CC12CCC3c4ccc(O)cc4CCC3C1CCC2(O)C=Cc1ccc(C(F)(F)F)cc1 (stereo not drawn) [Compound 6a, 17α-20E-21-(4-Trifluoromethylphenyl)-19-norpregna-1,3,5(10),20-tetraene-3,17β-diol]	decreases in the estradiol effects were observed below 1 nM	did not elicit a proliferative response until a 10 nM dose was employed		little or no estrogenic effects		reduced the estrogenic response
